# Assay results from patent publication US9181281B2, “Prodrugs of neuraminidase inhibitors” (priority 2008, dated 2015).
# Like-named read-outs stand apart in the source and are kept apart here.
# T1: hPEPT1 (Homo sapiens, UniProt P46059)
# T1 sequence (P46059 1-708): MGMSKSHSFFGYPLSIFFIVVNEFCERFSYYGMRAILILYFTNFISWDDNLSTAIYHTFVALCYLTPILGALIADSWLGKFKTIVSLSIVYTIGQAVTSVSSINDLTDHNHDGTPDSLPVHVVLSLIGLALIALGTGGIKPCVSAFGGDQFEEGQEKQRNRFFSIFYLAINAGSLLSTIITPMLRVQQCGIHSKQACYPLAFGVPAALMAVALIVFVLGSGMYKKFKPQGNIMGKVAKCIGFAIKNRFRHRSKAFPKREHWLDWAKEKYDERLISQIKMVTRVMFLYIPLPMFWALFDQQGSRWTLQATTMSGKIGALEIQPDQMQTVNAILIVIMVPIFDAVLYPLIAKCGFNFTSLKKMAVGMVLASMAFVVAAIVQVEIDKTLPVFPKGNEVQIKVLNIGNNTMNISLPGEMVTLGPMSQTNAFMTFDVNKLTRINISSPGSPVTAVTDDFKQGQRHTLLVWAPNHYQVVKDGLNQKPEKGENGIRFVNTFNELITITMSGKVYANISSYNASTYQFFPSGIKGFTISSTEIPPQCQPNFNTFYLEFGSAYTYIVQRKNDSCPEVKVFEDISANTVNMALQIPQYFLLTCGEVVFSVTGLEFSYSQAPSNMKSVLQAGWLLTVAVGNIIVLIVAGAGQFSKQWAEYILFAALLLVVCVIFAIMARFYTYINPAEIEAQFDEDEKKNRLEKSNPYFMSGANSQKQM
# T2: VACVase (Homo sapiens, UniProt Q86WA6)
# T2 sequence (Q86WA6 38-291): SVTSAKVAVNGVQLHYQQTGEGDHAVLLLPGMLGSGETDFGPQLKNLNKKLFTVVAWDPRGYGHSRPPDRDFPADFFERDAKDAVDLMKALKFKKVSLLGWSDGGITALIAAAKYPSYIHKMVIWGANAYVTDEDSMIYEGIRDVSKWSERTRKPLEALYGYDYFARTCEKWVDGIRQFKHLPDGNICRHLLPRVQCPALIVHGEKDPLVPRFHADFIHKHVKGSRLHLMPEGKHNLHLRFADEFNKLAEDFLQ
# Experiments:
# hPEPT1 [1] = target: T1, hPEPT1; assay: [3H]Gly-Sar uptake inhibition in HeLa/hPEPT1 cells; format: cell-based; design: expressed in transfected cells; host or cells: HeLa
# [2] = cited from earlier work; for bioavailability: species not stated
# hPEPT1 [3] = target: T1, hPEPT1; assay: [3H]Gly-Sar uptake inhibition in Caco-2 cells; format: cell-based
# Procedure: The affinity of zanamivir, GOC, 3-hydroxyphenylglycine (3-HPG) and prodrugs thereof for particular transporters is evaluated using [^3H]Gly-Sar uptake inhibition in Caco-2 cells and in HeLa/hPEPT1 cells. Valacyclovir, a known substrate of hPEPT1, was used as positive control (Table 1). […] The valyl and isoleucyl prodrugs of zanamivir, GOC, and 3-HPG have higher affinity for hPEPT1 than the parent compounds.
# [4] = Permeability in rat perfused jejunum; format: in vivo
# Excerpt: Improved permeability of prodrugs Zan-Val, GOC-Val, and 3-HPG-Ile compared to the parent compounds is observed in the rat perfused jejunum, as shown in FIG. 3.
# [5] = 10 mg-eq/kg oral gavage to rats; cited from earlier work
# [6] = AUC and bioavailability of GOC and GOC prodrugs in fasted rats (IV or duodenal injection); conditions: for AUC0-4 hr, Prodrug / AUC0-4 hr, Total AUC / AUC0-4 hr, GOC / % F: rat
# Procedure: 10 mg-eq/kg of GOC or GOC prodrugs were directly injected to duodenum segment of fasted rats. […] Appropriate volume of blood samples was taken from the jugular vein at the predetermined time points.
# Rat plasma samples were analyzed for GOC prodrug and GOC using LCMSMS following solid phase extraction sampling preparation. A reverse phase solid-phase cartridge (HLB, 30 mg/1 cc, Waters) was activated with 1.0 mL of methanol and equilibrated with 1.0 mL of water. A 250 ul aliquot of rat plasma was acidified with 250 uL of 1% TFA solution and loaded on to the cartridges. After washing with 1.0 ml water, the compounds are eluted with 1 ml of 2% acetic acid solution. The eluted solvent was evaporated under nitrogen stream in TurboVap and the residue was reconstituted in 250 ul of mobile phase.
# Samples were analyzed using a LC/MS/MS system (Micromass Quattro II, HP 1100). The HPLC system consisted of a HP1100 system (Hewlett Packard, CA). 10 ul of sample was separated with a C18 column (2.1×150 mm) using a mobile phase of 10-30% acetonitrile:water containing 0.1% formic acid. Quattro II triple quadrupole mass spectrometer (Micromass, Beverly, Mass.) interfaced with the HPLC via electropray source was used for the mass analysis and detection. The data acquisition software was MassLynx (version 4.0). Calibration curves were constructed by weighted (1/x) least square regression of peak area versus concentrations of the calibration standards.
# Bioavailability calculation is based on the AUC0-4 hrs.
# [7] = system: influenza virus neuraminidase; conditions: read-out: IC50, influenza virus neuraminidase; cited from earlier work
# VACVase = target: T2, VACVase; assay: Hydrolysis of prodrugs by VACVase (Michaelis-Menten kinetics)
# [8] = Hydrolysis of prodrugs in buffer over pH 1.2-7.4 at 37° C.; format: physicochemical; conditions: pH range 1.2-7.4, 37° C.
# Procedure: The hydrolysis of prodrugs of the present invention in buffer was studied over the pH range 1.2-7.4 at 37° C.
# [9] = substrate: CC(C)[C@H](N)C(=O)OCCOCn1cnc2c(=O)[nH]c(N)nc21; assay: purified protein, by the assay type; conditions: 25.0 °C
# [10] = HeLa/hPEPT1 cells, mean ± sd, n = 2, read-out: IC50 of [3H]Gly-Sar uptake inhibition
# [11] = duodenal administration (OGI) 10 mg-eq/kg
molecule,measurement,setting,value
"CC[C@H](C)[C@H](N)C(=O)OC(C)OC(=O)C1=C[C@H](NC(=N)N)[C@@H](NC(C)=O)[C@H]([C@H](O)[C@H](O)CO)O1 (stereo partly shown) [Zan-Ile, zanamivir ethoxyisoleucine ester]",IC50,hPEPT1 [1]; [10],3040 ± 800 µM
CCC(CC)[C@H](NC(C)=O)[C@@H]1[C@H](O)[C@@H](C(=O)O)C[C@H]1N=C(N)N [peramivir],oral bioavailability,"[2]; peramivir, clinical trials context",≤ 3%
"NC(C(=O)O)c1cccc(O)c1 (stereo not shown) [3-HPG, 3-hydroxyphenylglycine]",affinity for the transporter,hPEPT1 [3],poor affinity
same,jejunal permeability,[4],"very low, essentially zero permeability"
same,affinity for the transporter,hPEPT1 [1]; HeLa/hPEPT1 cells,poor affinity
same,IC50,hPEPT1 [1]; [10],> 5000 µM
CCOC(=O)C1=C[C@@H](OC(CC)CC)[C@H](NC(C)=O)[C@@H](NC(=N)N)C1 [GS4109],bioavailability,[2],approximately 2%
same,Cmax,[5],30 ng/mL
"CC(=O)N[C@H]1[C@H]([C@H](O)[C@H](O)CO)OC(C(=O)O)=C[C@@H]1N=C(N)N [Zanamivir, zanamivir]",affinity for the transporter,hPEPT1 [3],poor affinity
same,jejunal permeability,[4],"very low, essentially zero permeability"
same,affinity for the transporter,hPEPT1 [1]; HeLa/hPEPT1 cells,poor affinity
same,IC50,hPEPT1 [1]; [10],> 30000 µM
same,absolute oral availability,"[2]; in vivo, po",~2%
same,% F,[5],3.7%
same,Cmax,[5],60 ng/mL
CCC(CC)O[C@@H]1C=C(C(=O)OCCNC(=O)[C@@H](N)C(C)C)C[C@H](NC(=N)N)[C@H]1NC(C)=O [GOC GlyOH L-Val],species found in plasma after dosing,"[6]; rat plasma, OGI 10 mg-eq/kg",Only a trace amount of GOC is detected in the plasma
same,"AUC0-4 hr, Prodrug",[6]; [11],386 ± 406 (ng/mL) · hrs
same,"AUC0-4 hr, Total AUC",[6]; [11],401 ± 419 (ng/mL) · hrs
"CCC(CC)O[C@@H]1C=C(C(=O)O)C[C@H](NC(=N)N)[C@H]1NC(C)=O [GOC, guanidino oseltamivir carboxylate]",affinity for the transporter,hPEPT1 [3],poor affinity
same,IC50,[7],0.0009 µM
same,"AUC0-4 hr, GOC",[6]; IV injection 1 mg/kg,385 ± 167 (ng/mL) · hrs
same,"AUC0-4 hr, Total AUC",[6]; IV injection 1 mg/kg,385 ± 167 (ng/mL) · hrs
same,% F,[6]; IV injection 1 mg/kg (reference),100.0%
same,"AUC0-4 hr, GOC",[6]; [11],265 ± 91 (ng/mL) · hrs
same,"AUC0-4 hr, Total AUC",[6]; [11],265 ± 91 (ng/mL) · hrs
same,% F,"[6]; duodenal administration (OGI) 10 mg-eq/kg, based on AUC0-4 hrs",4.6%
same,jejunal permeability,[4],"very low, essentially zero permeability"
same,affinity for the transporter,hPEPT1 [1]; HeLa/hPEPT1 cells,poor affinity
same,IC50,hPEPT1 [1]; [10],6600 ± 3900 µM
same,bioavailability,[2],~4.0%
same,% F,[5],4.0%
same,Cmax,[5],60 ng/mL
"CCC(CC)O[C@@H]1C=C(C(=O)OC(C)OC(=O)[C@@H](N)C(C)C)C[C@H](NC(=N)N)[C@H]1NC(C)=O (stereo partly shown) [GOC-Val, valine ethoxyester of guanidine oseltamivir]",Kcat,"VACVase; hydrolysis by VACVase, 25° C.",8.7 s⁻¹
same,Km,"VACVase; hydrolysis by VACVase, 25° C.",2370 µM
same,Vmax,"VACVase; hydrolysis by VACVase, 25° C.",19.4 nmol/min/μg of VACVase
same,jejunal permeability,[4],"high permeability, higher than that of metoprolol"
same,IC50,hPEPT1 [1]; [10],190 ± 10 µM
same,hydrolysis behaviour in buffer,[8],pH dependent hydrolysis
"CC(=O)N[C@H]1[C@H]([C@H](O)[C@H](O)CO)OC(C(=O)OC(C)OC(=O)[C@@H](N)C(C)C)=C[C@@H]1NC(=N)N (stereo partly shown) [Zan-Val, valine ethoxyester of zanamivir]",Kcat,"VACVase; hydrolysis by VACVase, 25° C.",21.2 s⁻¹
same,Km,"VACVase; hydrolysis by VACVase, 25° C.",1550 µM
same,Vmax,"VACVase; hydrolysis by VACVase, 25° C.",47.2 nmol/min/μg of VACVase
same,jejunal permeability,[4],"high permeability, higher than that of metoprolol"
same,IC50,hPEPT1 [1]; [10],1950 ± 190 µM
same,hydrolysis behaviour in buffer,[8],pH dependent hydrolysis
"CCC(CC)O[C@@H]1C=C(C(=O)O)C[C@H](N)[C@H]1NC(C)=O [GS4071, oseltamivir carboxylate]",bioavailability,[2],~4.0%
same,Cmax,[5],30 ng/mL
"CCC(CC)O[C@@H]1C=C(C(=O)OC(C)OC(=O)[C@@H](N)[C@@H](C)CC)C[C@H](NC(=N)N)[C@H]1NC(C)=O (stereo partly shown) [GOC-Ile, isoleucine ethoxyester of guanidine oseltamivir]",IC50,hPEPT1 [1]; [10],450 ± 180 µM
same,hydrolysis behaviour in buffer,[8],pH dependent hydrolysis
"CCOC(=O)C1=C[C@@H](OC(CC)CC)[C@H](NC(C)=O)[C@@H](N)C1 [GS4104, oseltamivir]",oral bioavailability,"[2]; in rats, mice, dogs and ferrets",11-73%
same,% F,[5],35%
same,Cmax,[5],47 ng/mL
CCC(CC)O[C@@H]1C=C(C(=O)OCC(C)OC(=O)[C@@H](N)C(C)C)C[C@H](NC(=N)N)[C@H]1NC(C)=O (stereo partly drawn) [GOC PG L-Val],"AUC0-4 hr, Prodrug",[6]; [11],17 ± 12 (ng/mL) · hrs
same,"AUC0-4 hr, Total AUC",[6]; [11],116 ± 61 (ng/mL) · hrs
"CC(C)[C@H](N)C(=O)OCCOCn1cnc2c(=O)[nH]c(N)nc21 [Valcyclovir, Valacyclovir]",Vmax,VACVase,280 nmol/min/μg of VACVase
same,IC50,hPEPT1 [1],1880 ± 510 µM
VACVase (Homo sapiens) (protein) SVTSAKVAVNGVQLHYQQTGEGDHAVLLLPGMLGSGETDFGPQLKNLNKKLFTVVAWDPRGYGHSRPPDRDFPADFFERDAKDAVDLMKALKFKKVSLLGWSDGGITALIAAAKYPSYIHKMVIWGANAYVTDEDSMIYEGIRDVSKWSERTRKPLEALYGYDYFARTCEKWVDGIRQFKHLPDGNICRHLLPRVQCPALIVHGEKDPLVPRFHADFIHKHVKGSRLHLMPEGKHNLHLRFADEFNKLAEDFLQ,Km,[9],590 µM
same,kcat,[9],126 s⁻¹
same,kcat/Km,[9],213000 M⁻¹ s⁻¹
